Measured values from patent US7129269B2, “Compound” (Sterix Ltd., priority 1996, dated 2006).

Legend:
oestrone sulphatase [1] = target: T1, oestrone sulphatase (Homo sapiens, UniProt P08842); assay: Oestrone sulphatase inhibition in placental microsomes; assay type: biochemical; conditions: placental microsomes
T1 construct: from tissue; host or cells: placenta (microsomes, 100,000 g)
T1 sequence (P08842 22-583): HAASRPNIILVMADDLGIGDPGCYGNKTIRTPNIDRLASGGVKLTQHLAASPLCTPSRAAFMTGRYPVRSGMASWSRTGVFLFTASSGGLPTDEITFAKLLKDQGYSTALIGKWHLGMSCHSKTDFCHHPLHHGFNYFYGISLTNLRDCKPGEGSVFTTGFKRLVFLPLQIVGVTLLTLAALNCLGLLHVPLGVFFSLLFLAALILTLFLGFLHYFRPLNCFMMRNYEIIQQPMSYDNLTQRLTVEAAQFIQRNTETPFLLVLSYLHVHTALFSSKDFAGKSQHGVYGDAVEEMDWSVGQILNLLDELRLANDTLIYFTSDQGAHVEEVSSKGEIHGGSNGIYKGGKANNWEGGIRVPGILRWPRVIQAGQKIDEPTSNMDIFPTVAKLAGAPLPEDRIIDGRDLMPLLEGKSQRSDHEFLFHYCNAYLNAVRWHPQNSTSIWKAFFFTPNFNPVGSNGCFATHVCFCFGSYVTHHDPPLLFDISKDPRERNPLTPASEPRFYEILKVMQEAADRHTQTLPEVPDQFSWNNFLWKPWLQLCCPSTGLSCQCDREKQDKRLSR

[2] = target: T2, oestrone sulphatase (E1-STS) (Homo sapiens, UniProt P08842); assay: Oestrone sulphatase (E1-STS) inhibition in intact MCF-7 breast cancer cells; assay type: cell-based
T2 construct: endogenous in cells; host or cells: MCF-7 breast cancer cells
T2 sequence (P08842 22-583): T1 sequence (P08842 22-583)

aromatase = target: T3, aromatase (Homo sapiens, UniProt P11511)
T3 sequence (P11511 1-503): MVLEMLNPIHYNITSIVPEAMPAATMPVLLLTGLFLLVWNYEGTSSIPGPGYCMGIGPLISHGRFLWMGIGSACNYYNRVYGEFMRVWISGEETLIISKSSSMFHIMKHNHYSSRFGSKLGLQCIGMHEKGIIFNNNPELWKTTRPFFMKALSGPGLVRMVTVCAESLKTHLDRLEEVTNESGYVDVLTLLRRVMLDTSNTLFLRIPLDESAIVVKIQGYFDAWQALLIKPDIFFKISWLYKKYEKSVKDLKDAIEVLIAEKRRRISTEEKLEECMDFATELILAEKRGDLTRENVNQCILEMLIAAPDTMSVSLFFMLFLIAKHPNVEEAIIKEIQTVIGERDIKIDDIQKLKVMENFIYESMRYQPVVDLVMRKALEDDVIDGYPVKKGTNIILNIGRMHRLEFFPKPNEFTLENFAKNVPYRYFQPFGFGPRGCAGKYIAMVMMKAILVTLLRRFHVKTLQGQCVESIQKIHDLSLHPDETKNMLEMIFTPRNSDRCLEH

oestrone sulphatase [3] = target: T4, oestrone sulphatase (Rattus norvegicus, UniProt P15589); assay: In vivo inhibition of oestrone sulphatase activity in rat liver; conditions: 24 hours after single oral dose in propylene glycol, 10 mg/Kg
T4 construct: from tissue; host or cells: rat liver
T4 sequence (P15589 20-577): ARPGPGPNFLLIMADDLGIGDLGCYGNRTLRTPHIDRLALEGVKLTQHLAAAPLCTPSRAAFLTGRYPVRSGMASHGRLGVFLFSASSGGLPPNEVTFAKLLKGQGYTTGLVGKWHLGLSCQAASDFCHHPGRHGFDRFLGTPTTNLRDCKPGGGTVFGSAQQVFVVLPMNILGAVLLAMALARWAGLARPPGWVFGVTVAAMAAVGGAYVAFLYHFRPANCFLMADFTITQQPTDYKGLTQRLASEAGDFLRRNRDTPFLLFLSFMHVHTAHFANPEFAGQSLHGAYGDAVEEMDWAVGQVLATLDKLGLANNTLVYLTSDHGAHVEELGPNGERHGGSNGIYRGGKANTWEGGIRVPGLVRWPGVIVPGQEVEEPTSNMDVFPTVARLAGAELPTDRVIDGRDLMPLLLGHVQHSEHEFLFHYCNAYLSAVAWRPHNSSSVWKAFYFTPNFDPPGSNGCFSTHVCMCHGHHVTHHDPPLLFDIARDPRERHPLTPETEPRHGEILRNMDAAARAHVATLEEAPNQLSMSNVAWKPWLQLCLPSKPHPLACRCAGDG
Procedure: FIG. 11 presents in vivo inhibition of oestrone sulphatase activity in rat liver for two isoflavones according to the present invention. […] Compounds were administered as a single 10 mg/Kg dose. Oestrone sulphatase activity was assayed in tissue samples obtained 24 h after drug administration.

Row | % INHIBITION Sulphatase (oestrone sulphatase [1]; 10 μM, listed as 5,7-dehydroxy flavanone-4′-sulphamate) [%] | % Inhibition of sulphatase activity in MCF-7 cells ([2]; 0.1 μM) [%] | % Inhibition of oestrone sulphatase in vivo (oestrone sulphatase [3]) [%] | SMILES | % INHIBITION Sulphatase (oestrone sulphatase [1]; 1 μM) [%] | % INHIBITION Sulphatase (oestrone sulphatase [1]; 10 μM) [%] | % Inhibition of sulphatase activity in MCF-7 cells ([2]; 1 μM) [%] | % Inhibition of sulphatase activity in MCF-7 cells ([2]; 10 μM) [%] | % Inhibition of aromatase activity in placental microsomes at 10 μM (aromatase) [%]
1 |  |  |  | NS(=O)(=O)Oc1cc(O)c2c(=O)cc(-c3ccccc3)oc2c1 [Compound 3, 5-Hydroxyflavone 7-O-sulphamate] | 8 | 21 | 4.2 ± 0.9 | 20.6 ± 1.2 | 85
2 | 98 | 30 ± 2.8 | 44.2 ± 3.8 | NS(=O)(=O)Oc1ccc(C2CC(=O)c3c(O)cc(O)cc3O2)cc1 (stereo not shown) [Compound 20, 5,7-Dihydroxyflavanone 4′-O-sulphamate] |  |  | 79 ± 1.2 | > 99 | 
